Test results reported in patent US20260217687A1 (NeoPhore Limited, priority 2023, published 2026).

Biological target: T1, recombinant N-terminal MLH1 (residues 15-340) (Homo sapiens, UniProt P40692)
T1 construct: recombinant N-terminal MLH1 (residues 15-340)
T1 sequence (P40692 15-340): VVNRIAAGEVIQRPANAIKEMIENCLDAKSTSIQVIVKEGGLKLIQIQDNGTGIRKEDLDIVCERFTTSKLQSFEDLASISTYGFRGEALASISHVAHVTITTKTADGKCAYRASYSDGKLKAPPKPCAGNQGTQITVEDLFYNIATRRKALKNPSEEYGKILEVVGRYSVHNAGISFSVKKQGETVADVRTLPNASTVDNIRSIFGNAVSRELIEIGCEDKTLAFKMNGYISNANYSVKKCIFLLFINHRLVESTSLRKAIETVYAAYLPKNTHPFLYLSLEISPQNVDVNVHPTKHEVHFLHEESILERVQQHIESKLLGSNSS
Assay: Fluorescence Polarisation Assay for MLH1
Format: binding
Conditions: 100 nM N-terminal MLH1, 5 nM probe compound
Description: Fluorescence Polarisation Assay for MLH1
Test compounds, as 10 mM DMSO stocks, were dispensed into a 384-well Low Flange Black Flat Bottom Polystyrene Non-binding Surface plate (Corning®, item number 3575) using a Labcyte Echo acoustic liquid handler. […] 20 μL of a 2× solution (200 nM) of recombinant N-terminal MLH1 (residues 15-340) in assay buffer (25 mM HEPES, pH 7.5, 250 mM NaCl, 10 mM MgCl2, 0.01% Triton X-100, 5 mM Dithiothreitol) was added to all wells in columns 1-23 and 20 μL assay buffer was added to all wells in column 24 using an E1-ClipTip pipette (ThermoFisher). Plates were centrifuged for 1 minute at 250 xg and were incubated at room temperature for 30 minutes prior to the addition of 20 μL of 2×(10 nM) of 5-((5-(4-((2-(2-(Benzyloxy)-4,6-dihydroxybenzoyl)isoindolin-5-yl)methyl)piperazin-1-yl)pentyl)carbamoyl)-2-(6-(dimethylamino)-3-(dimethyliminio)-3H-xanthen-9-yl)benzoate (referred to hereinafter as “probe compound”) in assay buffer (prepared from a 1 mM DMSO stock) with an E1-ClipTip pipette (ThermoFisher). The final concentration of N-terminal MLH1 was 100 nM and the final concentration of the probe compound was 5 nM. Compound plates were centrifuged for 1 minute at 250 xg for 1 minute and immediately read on a PheraStar FSX (fitted with 384-well aperture spoon and 590 675 675 FP optic module). The gain and focus were adjusted before each plate was read so that the polarisation of a no enzyme control (column 24) was equal to 35 mP. Data were normalised against the no inhibitor controls (column 23) and no enzyme controls (column 24).

Row | IC50 [nM] | Compound
1 | 100 to 1000 | CN1C[C@H](Nc2cccc3c2CN(C(=O)c2c(O)cc(C#N)cc2OCc2ccccc2)C3)CC1=O (single isomer, unassigned) [Example 10.7, (R)-3-(Benzyloxy)-5-hydroxy-4-(4-((1-methyl-5-oxopyrrolidin-3-yl)amino)isoindoline-2-carbonyl)benzonitrile or (S)-3-(benzyloxy)-5-hydroxy-4-(4-((1-methyl-5-oxopyrrolidin-3-yl)amino)isoindoline-2-carbonyl)benzonitrile]
2 | 100 to 1000 | CN1C[C@H](Nc2cccc3c2CN(C(=O)c2c(O)cc(C#N)cc2OCc2ccccc2)C3)CC1=O (single isomer, unassigned) [Example 10.8, (R)-3-(Benzyloxy)-5-hydroxy-4-(4-((1-methyl-5-oxopyrrolidin-3-yl)amino)isoindoline-2-carbonyl)benzonitrile or (S)-3-(benzyloxy)-5-hydroxy-4-(4-((1-methyl-5-oxopyrrolidin-3-yl)amino)isoindoline-2-carbonyl)benzonitrile]
3 | 100 to 1000 | COc1cccc(COc2cc(C(F)F)cc(O)c2C(=O)N2Cc3cccc(N[C@H]4CCOC4)c3C2)c1 [Example 4.1, (S)-(4-(Difluoromethyl)-2-hydroxy-6-((3-methoxybenzyl)oxy)phenyl)(4-((tetrahydrofuran-3-yl)amino)isoindolin-2-yl)methanone]
4 | 100 to 1000 | CN(C)Cc1cc2c(c(N[C@H]3CCOC3)c1)CN(C(=O)c1c(O)cc(C(F)F)cc1OCc1ccccc1)C2 [Example 4.2, (S)-(2-(Benzyloxy)-4-(difluoromethyl)-6-hydroxyphenyl)(6-((dimethylamino)methyl)-4-((tetrahydrofuran-3-yl)amino)isoindolin-2-yl)methanone]
5 | 100 to 1000 | CC(=O)N1CC(Nc2cccc3c2CN(C(=O)c2c(O)cc(C(F)F)cc2OCc2ccccc2)C3)C1 [Example 4.3, 1-(3-((2-(2-(Benzyloxy)-4-(difluoromethyl)-6-hydroxybenzoyl)isoindolin-4-yl)amino)azetidin-1-yl)ethan-1-one]
6 | 100 to 1000 | O=C(c1c(O)cc(C(F)F)cc1OCc1ccccc1)N1Cc2cccc(NC3COC3)c2C1 [Example 4.4, (2-(Benzyloxy)-4-(difluoromethyl)-6-hydroxyphenyl)(4-(oxetan-3-ylamino)isoindolin-2-yl)methanone]
7 | 100 to 1000 | O=C(c1c(O)cc(C(F)F)cc1OCc1ccccn1)N1Cc2cccc(NC3COC3)c2C1 [Example 4.5, (4-(Difluoro methyl)-2-hydroxy-6-(pyridin-2-ylmethoxy)phenyl) (4-(oxetan-3-ylamino)isoindolin-2-yl) methanone]
8 | 100 to 1000 | O=C(c1c(O)cc(C(F)F)cc1OCc1ccccc1)N1CCc2cccc(N[C@H]3CCOC3)c2C1 [Example 4.6, (S)-(2-(Benzyloxy)-4-(difluoromethyl)-6-hydroxyphenyl)(8-((tetrahydrofuran-3-yl)amino)-3,4-dihydroisoquinolin-2(1H)-yl)methanone]
9 | 100 to 1000 | O=C(c1c(O)cc(C(F)F)cc1OCc1ccccc1)N1CCc2cccc(NC3COC3)c2C1 [Example 4.7, (2-(Benzyloxy)-4-(difluoromethyl)-6-hydroxyphenyl)(8-(oxetan-3-ylamino)-3,4-dihydroisoquinolin-2(1H)-yl) methanone]
10 | 100 to 1000 | COc1ccc(COc2cc(C(F)F)cc(O)c2C(=O)N2Cc3cccc(N[C@H]4CCOC4)c3C2)cc1 [Example 4.8, (S)-(4-(Difluoromethyl)-2-hydroxy-6-((4-methoxybenzyl)oxy)phenyl)(4-((tetrahydrofuran-3-yl)amino)isoindolin-2-yl)methanone]
11 | 100 to 1000 | O=C(c1c(O)cc(C(F)F)cc1OCc1ccccn1)N1Cc2cccc(N[C@H]3CCOC3)c2C1 [Example 4.9, (S)-(4-(Difluoromethyl)-2-hydroxy-6-(pyridin-2-ylmethoxy)phenyl) (4-((tetrahydrofuran-3-yl)amino)isoindolin-2-yl) methanone]
12 | 100 to 1000 | O=C(c1c(O)cc(C(F)F)cc1OCc1ccccn1)N1CCc2cccc(N[C@H]3CCOC3)c2C1 [Example 4.10, (S)-(4-(Difluoromethyl)-2-hydroxy-6-(pyridin-2-ylmethoxy)phenyl)(8-((tetrahydrofuran-3-yl)amino)-3,4-dihydroisoquinolin-2(1H)-yl)methanone]
13 | 100 to 1000 | COc1ccc(COc2cc(C(F)F)cc(O)c2C(=O)N2CCc3cccc(N[C@H]4CCOC4)c3C2)cc1 [Example 4.11, (S)-(4-(Difluoromethyl)-2-hydroxy-6-((4-methoxybenzyl)oxy)phenyl)(8-((tetrahydrofuran-3-yl)amino)-3,4-dihydroisoquinolin-2(1H)-yl)methanone]
14 | 100 to 1000 | CN1CC[C@H](Nc2cccc3c2CN(C(=O)c2c(O)cc(C(F)F)cc2OCc2ccccc2)C3)C1=O [Example 4.12, (S)-3-((2-(2-(Benzyloxy)-4-(difluoromethyl)-6-hydroxybenzoyl)isoindolin-4-yl)amino)-1-methylpyrrolidin-2-one]
15 | 100 to 1000 | CN1CC[C@H](Nc2cccc3c2CN(C(=O)c2c(O)cc(C(F)F)cc2OCc2ccccc2)CC3)C1=O [Example 4.13, (S)-3-((2-(2-(benzyloxy)-4-(difluoromethyl)-6-hydroxybenzoyl)-1,2,3,4-tetrahydroisoquinolin-8-yl)amino)-1-methylpyrrolidin-2-one]

Further lines, the compound ahead of its results:

Row | Compound | IC50 [nM]
16 | O=C(c1c(O)cc(C(F)F)cc1OCc1ccccc1)N1CCc2ccc(NC3CCOC3)cc21 (single isomer, unassigned) [Example 27.2a, (S)-(2-(Benzyloxy)-4-(difluoromethyl)-6-hydroxyphenyl)(6-((tetrahydrofuran-3-yl)amino)indolin-1-yl)methanone or (R)-(2-(Benzyloxy)-4-(difluoromethyl)-6-hydroxyphenyl)(6-((tetrahydrofuran-3-yl)amino)indolin-1-yl)methanone] | 100 to 1000
17 | O=C(c1c(O)cc(C(F)F)cc1OCc1ccccc1)N1CCc2ccc(N[C@H]3CCOC3)cc21 (single isomer, unassigned) [Example 27.2b, (S)-(2-(Benzyloxy)-4-(difluoromethyl)-6-hydroxyphenyl)(6-((tetrahydrofuran-3-yl)amino)indolin-1-yl)methanone or (R)-(2-(benzyloxy)-4-(difluoromethyl)-6-hydroxyphenyl)(6-((tetrahydrofuran-3-yl)amino)indolin-1-yl)methanone] | 100 to 1000
18 | O=C(c1c(O)cc(C(F)F)cc1OCc1ccccc1)N1CCc2cc(NC3CCOC3)ccc21 (single isomer, unassigned) [Example 27.5a, (S)-(2-(Benzyloxy)-4-(difluoromethyl)-6-hydroxyphenyl)(5-((tetrahydrofuran-3-yl)amino)indolin-1-yl)methanone or (R)-(2-(Benzyloxy)-4-(difluoromethyl)-6-hydroxyphenyl)(5-((tetrahydrofuran-3-yl)amino)indolin-1-yl)methanone] | 100 to 1000
19 | O=C(c1c(O)cc(C(F)F)cc1OCc1ccccc1)N1CCc2cc(NC3CCOC3)ccc21 (single isomer, unassigned) [Example 27.5b, (S)-(2-(Benzyloxy)-4-(difluoromethyl)-6-hydroxyphenyl)(5-((tetrahydrofuran-3-yl)amino)indolin-1-yl)methanone or (R)-(2-(Benzyloxy)-4-(difluoromethyl)-6-hydroxyphenyl)(5-((tetrahydrofuran-3-yl)amino)indolin-1-yl)methanone] | 100 to 1000
20 | COc1cc(O)c(C(=O)N2Cc3cccc(N[C@H]4CCOC4)c3C2)c(OCc2ccccc2)c1 [Example 1, (S)-(2-(Benzyloxy)-6-hydroxy-4-methoxyphenyl)(4-((tetrahydrofuran-3-yl)amino)isoindolin-2-yl)methanone] | 100 to 1000
21 | COc1cc(O)c(C(=O)N2Cc3cccc(N[C@@H]4CCOC4)c3C2)c(OCc2ccccc2)c1 [Example 2, (R)-(2-(Benzyloxy)-6-hydroxy-4-methoxyphenyl)(4-((tetrahydrofuran-3-yl)amino)isoindolin-2-yl)methanone] | 100 to 1000
22 | O=C(c1c(O)cc(C(F)F)cc1OCc1ccccc1)N1Cc2cccc(N[C@@H]3CCOC3)c2C1 [Example 3, (R)-(2-(Benzyloxy)-4-(difluoromethyl)-6-hydroxyphenyl)(4-((tetrahydrofuran-3-yl)amino)isoindolin-2-yl)methanone] | 100 to 1000
23 | O=C(c1c(O)cc(C(F)F)cc1OCc1ccccc1)N1Cc2cccc(N[C@H]3CCOC3)c2C1 [Example 4, (S)-(2-(Benzyloxy)-4-(difluoromethyl)-6-hydroxyphenyl)(4-((tetrahydrofuran-3-yl)amino)isoindolin-2-yl)methanone] | 100 to 1000
